Experimental data: patent US6407080B2, “N-(pyrimidinyl)-aspartic acid analogs as interleukin-1β converting enzyme inhibitors” (Vertex Pharmaceuticals Incorporated, priority 1994, dated 2002)

What was measured:
[1] = tested on: release of mature IL-1β from human monocytes; assay: Human monocyte pulse chase assay, inhibition of release of mature IL-1β (called "in vivo"); assay type: cell-based; details: freshly isolated human monocytes activated with fixed S. aureus, 2-3 donors, values approximate
Protocol: In vivo inhibition (IC50) was determined based on Miller et al., “Inhibition of Mature IL-1β Production in Murine Macrophages and a Murine Model of Inflammation By WIN 67694, An Inhibitor of IL-1β Converting Enzyme, J. Immunol., 1994, 154, 1331, as follows:
Human monocytes were isolated from heparinized leukopheresis units obtained through Biological Specialty Corporation (Lansdale, Pa.). Monocytes were purified by Ficoll-Hupaque (Pharmacia Fine Chemicals, Piscataway, N.J.) gradient centrifugation and more than 95% pure monocyte populations obtained by centrifugal elutriation. The assay was performed on duplicate samples of freshly isolated human monocytes, cultured in suspension at 37° C. and rotated gently in conical bottom polypropylene tubes (Sardstedt Inc., Princeton, N.J.). Human monocytes at a concentration of 5×10^6 cells/mL were resuspended in 1 mL of RPMI 1640 (a common tissue buffer from M.A. Bioproducts, Walkersville, Md.) containing 1% fetal calf serum (FCS) (HyClone, Logan, Utah) and 50 μg/mL gentamycin (Gibco, Grand Island, N.Y.). The cells were treated either with a compound of the invention (i.e. test compound) or with a non-inhibitor (control compound, typically 0.03% DMSO) for 15 minutes and then activated with 0.01% fixed Staphylococcus aureus (The Enzyme Center, Malden, Mass.) for 1 hour. The cells were then centrifuged and resuspended in 1 mL of cysteine, methionine-free RPMI media containing 1% dialyzed FCS (Hyclone). The cells were pretreated with a test compound or control compound for 15 minutes after which 0.01% fixed S. aureus plus 100 μCi Tran 35-S label (ICN, Irvine, Calif.) was added and the cells incubated at 37° C. for 1 hour. After incubation, […]. The cells were again pretreated with a test or control compound for 15 minutes and then 0.01% S. aureus for 2 hours. […]
In the monocyte pulse chase assay, each test parameter was run in duplicate. […] When test compounds were evaluated, the percent inhibition of release of mature IL-β was calculated as follows: […]

[2] = target: T1, elastase (Homo sapiens, UniProt P08246); assay: Elastase inhibition (in vitro); assay type: biochemical; details: in vitro assay per Cha; did not inhibit elastase
T1 sequence (P08246 30-267): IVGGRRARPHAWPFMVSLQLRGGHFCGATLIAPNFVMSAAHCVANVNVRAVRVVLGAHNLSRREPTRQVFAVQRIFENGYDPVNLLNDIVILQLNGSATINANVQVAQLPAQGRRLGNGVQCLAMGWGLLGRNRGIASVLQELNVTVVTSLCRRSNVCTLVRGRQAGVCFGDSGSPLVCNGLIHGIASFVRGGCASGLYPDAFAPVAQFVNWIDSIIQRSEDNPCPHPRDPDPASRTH
From the text: It should be noted that the pyrimidine-based trifluoromethyl ketones (FIG. 2) were recently described as inhibitors of the serene protease, elastase. Since ICE is a cysteine protease and it is known in the prior art that trifluoromethyl ketones are rather poor inhibitors of cysteine proteases (See, Imperialia, B. and Ables, R. H., Biochemistly (1986), 2, 3760-7), it is expected that the pyrimidines of FIG. 2 would not be inhibitors of ICE. Also, it is known that ICE requires the aspartic acid side chain (—CH2COOH) at PI. Pyrimidines which inhibit elastase (FIG. 2) contain the valine side chain (—CHMe2).
Compounds of examples 1, 6 and 7 were examined for their ability to inhibit elastase. The in vitro assay was carried out as described by Cha, Biochem. Pharmacol., (1975), 24, 2177-2185.

IC50 [1] | IC50 [2] | SMILES
0.1 to 10 µM | ≥ 10 µM | O=C(O)C[C@H](NC(=O)Cn1c(-c2ccc(F)cc2)ncc(NC(=O)OCc2ccccc2)c1=O)C(=O)COC(=O)c1c(Cl)cccc1Cl [Example 1]
0.1 to 10 µM | ≥ 10 µM | O=C(O)C[C@H](NC(=O)Cn1c(-c2ccc(F)cc2)ncc(NC(=O)OCc2ccccc2)c1=O)C(=O)COc1cc(C(F)(F)F)nn1-c1ccccc1 [Example 6, N-[2-(5-Benzyloxycarbonylamino-6-oxo-2-(4-fluorophenyl)-1,6-dihydro-1-pyrimidinyl)acetoyl]-L-aspartic Acid 5-(1-phenyl-3-trifluoromethyl)pyrazoloxymethyl Ketone]
0.1 to 10 µM | ≥ 10 µM | CC(C)OC(=O)Nc1cnc(-c2ccccc2)n(CC(=O)N[C@@H](CC(=O)O)C(=O)COc2cc(C(F)(F)F)nn2-c2ccccc2)c1=O [Example 7, N-[2-(5-Isopropyloxycarbonylamino-6-oxo-2-phenyl-1,6-dihydro-1-pyrimidinyl)acetoyl]-L-aspartic Acid 5-(1-phenyl-3-trifluoromethyl)pyrazoloxymethyl Ketone]
